Literature values, collected in patent US20070185035A1, “ENHANCED MUCOSAL ADMINISTRATION OF NEUROPROTECTIVE PEPTIDES” (Nastech Pharmaceutical Company Inc., priority 2005, published 2007).
Read-outs that look alike come from different tables or passages of the source. One block for each molecule: values may come before it.

How the values were obtained:
[1] = system: ciliary motility; details: without obvious ultrastructural lesions
[2] = anesthetized rats
[3] = system: aminopeptidases

Molecule: 2-alkyl-4-hydroxyquinolines [pyo compound]
concentration producing ciliostasis [1]: 50 µg/mL

Molecule: human growth hormone: human growth hormone given nasally to rats with or without N-acetyl-L-cysteine
nasal bioavailability ([2]; with N-acetyl-L-cysteine (ACS)): 12.2%
nasal bioavailability ([2]; without N-acetyl-L-cysteine): 7.5%

effectiveness in enzyme inhibition relative to bestatin [3]: more than 100 times
effectiveness in enzyme inhibition relative to puromycin [3]: more than 1000 times
Molecule: CC(C)CC(N)B(O)O (centres unmarked) [boro-leucine]
